Entries after “also recorded” stand apart in the source; their conditions may differ. Where a name gives a salt, the structure may show the parent alone.
The molecules below were run on MLO-Y4 osteocytes (assay: High-throughput drug screening of primary cilia length and incidence). Settings: 10 μM, 16 hours, triplicate; normalized to vehicle control; standard deviation away from the population average.
Assay type: cell-based
Experimental: MLO-Y4 osteocytes were maintained on collagen I-coated dishes in MEMα (Life_Technologies) supplemented with 5% fetal bovine serum (FBS), 5% calf serum (CS), and 1% penicillin/streptomycin (P/S) at 37° C. and 5% CO2. Osteocytes were then seeded onto 384-well collagen-coated plates for 72 hours before fixation. […] These libraries include Tocris, Sigma LOPAC, Selleck Chemical, Prestwick, and Spectrum commercially available compound libraries. All cell seeding and plate handling was performed with the Perkin Elmer cell:explorer workstation.
Cells were fixed in 4% paraformaldehyde and permeabilized with 0.1% Triton-X 100 (Sigma). 10% goat serum (vendor) was used for blocking. Cilia were stained using a monoclonal antibody against acetylated α-tubulin (1:20) from a C3B9 hybridoma cell line, and visualized with A F488 (1:1000, ThermoFisher). Nuclei were visualized with Hoechst. Cells were imaged using a GE INCell 2000 high-throughput imager at 40× magnification. 4 fields of view were taken per well.
Each pair of nuclei and cilia images was first analyzed individually, then the entire population was examined to evaluate each compound's effect on cilia length and incidence. A custom MATLAB script was developed to perform all image analysis. This script first utilizes an enhanced implementation of a watershed transform, which is a segmentation tool which enables detection of similarly shaped overlapping particles in noisy images by the procedural whittling down of pixels found close to the edge of such particles. The augmentation of the algorithm incorporates thresholding for noise removal based on signal intensity and object size, nuclei dilation to exclude non-cellular artifacts, as well as skeletonization of cilia to quantify length. The results of the analysis are number of nuclei, number of cilia, and average cilia length in each image.
Compounds were selected based on deviation from the population mean. Each well was normalized to vehicle control images on each plate, allowing the establishment of a normalized population mean. Hits were chosen based on compounds whose triplicate mean was furthest (based on standard deviation away) from the population mean. […] Compounds were classified based on mechanism of action.
To identify compounds that modulate primary cilia formation a high-throughput platform was developed to automate cell culture, staining, imaging, and analysis, as shown in schematic form in FIG. 18. […] Cells were cultured on 384-well plates, and treated with small molecules with known biologic activity, enabling classification of mechanisms of action. Drug treatment was applied for 16 hours at 10 μM concentration, performed in triplicate, before fixation and immunostaining of primary cilia. Cells were then imaged using the GE INCell 2000 High Content Analyzer, capturing 4 fields of view per well at 40× magnification. Additionally, each plate contains 8 wells of DMSO vehicle control.
A MATLAB script was developed to detect and analyze changes in ciliogenesis. […] A representative exemplary image (FIG. 19A) is cropped to better display features, scale bar represents 30 μm. A custom MATLAB script was used to identify nuclei and cilia for analysis (FIG. 19B). […] Objects are further filtered based on size and signal intensity.
Cilia length and incidence for each field of view were normalized to vehicle control on that individual plate. This allowed development of a normalized population average and standard deviation. […] To control for toxic effects only small molecules with at least 40% viability, based on number of nuclei versus control, were selected as hits. Furthermore, compounds repeated between multiple libraries eliciting the same effect on cilia length or incidence were excluded, such that only one of the repeated compounds was selected as a hit.

Molecule	Average Incidence SD Away	Average Length SD Away
COC(=O)C1=C(C)NC(C)=C(C(=O)OC2CCCN(Cc3ccccc3)C2)C1c1cccc([N+](=O)[O-])c1 (stereo not shown) [Benidipine hydrochloride]	1.811 SD	–
S(−)-Atenolol	2.177 SD	2.057 SD
Oc1ccc(OCc2ccccc2)cc1 [MONOBENZONE]	–	1.914 SD
Cl.O=C1NCCc2[nH]c(-c3ccncc3)cc21 [PHA 767491 hydrochloride]	–	1.724 SD
CN1[C@@H]2CC[C@H]1C[C@@H](OC(=O)c1c[nH]c3ccccc13)C2 [Tropisetron]	1.694 SD	–
Cn1c(=O)c2[nH]cnc2n(C)c1=O.Cn1c(=O)c2[nH]cnc2n(C)c1=O.NCCN [Aminophylline ethylenediamine]	2.59 SD	–
CCN[C@H]1C[C@H](C)S(=O)(=O)c2sc(S(N)(=O)=O)cc21 [Dorzolamide HCL]	–	2.205 SD
CN1C(=O)COc2c(C(=O)NC3CN4CCC3CC4)cc(Cl)cc21 (stereo not shown) [Azasetron HCl]	1.653 SD	–
CC[C@@]1(O)C(=O)OCc2c1cc1n(c2=O)Cc2cc3cc(O)ccc3nc2-1 [10-HYDROXYCAMPTOTHECIN]	–	2.11 SD
O=C(O)/C=C/c1ccc(Cn2ccnc2)cc1 [Ozagrel HCl]	1.683 SD	–
COc1ccccc1OCC(O)CN1CCN(CC(=O)Nc2c(C)cccc2C)CC1 (stereo not shown) [Ranolazine (Ranexa), Ranolazine]	1.565 SD	–
Nc1nc(Cl)nc2c1ncn2[C@H]1C[C@H](O)[C@@H](CO)O1 [Cladribine]	1.604 SD	–
O=C1c2ccccc2C(=O)C1c1ccccc1 [Phenindione (Rectadione), Phenindione]	1.688 SD	–
Cc1cc(NC(=O)Nc2ccc(N(C)C)cc2)c2cc(F)cc(F)c2n1 [SB 408124]	–	2.398 SD
C=C[C@H]1C[N@@]2CC[C@H]1C[C@@H]2[C@@H](O)c1ccnc2ccc(OC)cc12 [QUINIDINE GLUCONATE]	–	1.825 SD
CCc1c2c(nc3ccc(OC(=O)N4CCC(N5CCCCC5)CC4)cc13)-c1cc3c(c(=O)n1C2)COC(=O)[C@]3(O)CC [Irinotecan]	1.681 SD	1.658 SD
CNC(=O)c1cc(Oc2ccc(NC(=O)Nc3ccc(Cl)c(C(F)(F)F)c3)cc2)ccn1 [Sorafenib (Nexavar), Sorafenib]	1.678 SD	1.5 SD
Cc1cccc(C)c1NC(=O)CN1CCCC1=O [Nefiracetam (Translon), Nefiracetam]	1.552 SD	–
CC[C@@]1(O)C(=O)OCc2c1cc1n(c2=O)Cc2cc3c(CN(C)C)c(O)ccc3nc2-1 [Topotecan hydrochloride hydrate]	2.75 SD	3.899 SD
CC(C)(C)[N+]([O-])=Cc1ccc(S(=O)(=O)[O-])cc1S(=O)(=O)[O-].[Na+].[Na+] [NXY 059]	1.838 SD	–
CC1=NCCc2c1[nH]c1cc(O)ccc21.Cl [HARMALOL HYDROCHLORIDE]	–	1.629 SD
Fc1ccc(-c2nc3n(c2-c2ccncc2)CCS3)cc1 [SKF 86002 dihydrochloride]	–	1.549 SD
COc1cc2c(cc1O)CC[C@@H]1[C@@H]2CC[C@]2(C)[C@@H](O)CC[C@@H]12 [2-Methoxyestradiol]	–	1.62 SD
CC(=O)O[C@H]1CC[C@@]2(C)[C@@H](CC[C@@H]3[C@@H]2CC(=O)[C@]2(C)[C@@H]4[C@H](C[C@@H]32)O[C@]2(CC[C@@H](C)CO2)[C@H]4C)C1 [HECOGENIN ACETATE]	–	2.21 SD
O=c1[nH]cc(F)c(=O)[nH]1 [5-fluorouracil]	–	1.775 SD
CCc1c2c(nc3ccc(OC(=O)N4CCC(N5CCCCC5)CC4)cc13)-c1cc3c(c(=O)n1C2)COC(=O)[C@]3(O)CC.Cl [CPT 11]	1.633 SD	1.894 SD
O=C1Cc2c([nH]c3ccc(Br)cc23)-c2ccccc2N1 [Kenpaullone]	–	3.28 SD

Molecule	Average Incidence SD Away	Average Length SD Away
N#C/C(=C\c1ccc(O)c(O)c1)C(=O)Nc1ccccc1 [AG 494]	–	1.575 SD
CON [METHOXYAMINE HYDROCHLORIDE]	–	1.91 SD
CC(=O)C(=Cc1ccccc1)CC(=O)O [LEVULINIC ACID 3-BENZYLIDENYL-]	–	2.3613 SD
CCc1ccc(CCOc2ccc(CC3SC(=O)NC3=O)cc2)nc1 (stereo not shown) [Pioglitazone hydrochloride (Actos), Pioglitazone hydrochloride]	2.52 SD	–
COc1ccc(C(=O)c2c(C)n(CCN3CCOCC3)c3cc(I)ccc23)cc1 [AM 630]	–	1.741 SD
CC1(C)Cc2c(-c3ccccc3)c(-c3ccc(Cl)cc3)c(CC(=O)O)n2C1 [Licofelone]	1.936 SD	–
NC(=O)NO [Hydroxyurea (Cytodrox), Hydroxyurea]	1.988 SD	–
CC(C[N+](C)(C)C)OC(N)=O (stereo not shown) [Bethanechol chloride]	1.764 SD	–
COC(=O)[C@H]1[C@H]2C[C@@H]3c4[nH]c5cc(OC)ccc5c4CCN3C[C@H]2C[C@@H](OC(=O)c2cc(OC)c(OC)c(OC)c2)[C@@H]1OC [RESERPINE]	–	1.972 SD
Ro 19-4605	–	1.584 SD
C[C@H](CCC(=O)O)[C@H]1CC[C@H]2[C@@H]3C(=O)C[C@@H]4CC(=O)CC[C@]4(C)[C@H]3CC(=O)[C@]12C [DEHYDROCHOLIC ACID]	–	1.611 SD
NC[C@H]1CC[C@H](C(=O)O)CC1 [Tranexamic acid (Transamin), Tranexamic acid]	1.582 SD	–
Nc1nc(N)nc(-c2cc(Cl)ccc2Cl)n1 [Irsogladine]	1.543 SD	–
COc1ccc(-c2cc3nccn3c(Nc3ncccc3C(N)=O)n2)cc1OC.Cl.O [BAY 61-3606 hydrochloride hydrate]	–	1.54 SD
COc1cc2c(cc1OC)[C@@H]1C(=O)c3ccc4c(c3O[C@@H]1CO2)C=CC(C)(C)O4 [DEGUELIN(−)]	–	2.48 SD
CCCCN1CCCCC1C(=O)Nc1c(C)cccc1C (stereo not shown) [Bupivacaine hydrochloride (Marcain), Bupivacaine hydrochloride]	1.827 SD	–
CN(C)CCc1c[nH]c2ccc(C[C@H]3COC(=O)N3)cc12 [Zolmitriptan (Zomig), Zolmitriptan]	1.521 SD	–
CCOC(=O)C1=C(C)NC(C)=C(C(=O)OC)C1c1cccc([N+](=O)[O-])c1 (stereo not shown) [Nitrendipine]	1.542 SD	–
C=C[C@H]1C[N@@]2CC[C@H]1C[C@H]2[C@H](O)c1ccnc2ccc(OC)cc12 [QUININE SULFATE]	–	1.802 SD
C=CCN1C[C@H](C)N([C@H](c2ccc(C(=O)N(CC)CC)cc2)c2cccc(O)c2)C[C@H]1C [BW 373U86]	–	1.553 SD
Br.C=CCN1CCc2cc(O)c(O)cc2C(c2ccccc2)C1 (stereo not shown) [SKF 77434 hydrobromide]	–	1.527 SD
O=NN(CCCl)C(=O)NC1CCCCC1 [Lomustine (CeeNU), Lomustine]	2.228 SD	–
c1ccc(-c2ccc(C(c3ccccc3)n3ccnc3)cc2)cc1 (stereo not shown) [Bifonazole]	1.664 SD	–
OCCN(CCO)c1nc(N2CCCCC2)c2nc(N(CCO)CCO)nc(N3CCCCC3)c2n1 [Dipyridamole (Persantine), Dipyridamole]	2.055 SD	–
O=C(C[S+]([O-])Cc1ccco1)NC/C=C\COc1cc(CN2CCCCC2)ccn1 (stereo not shown) [Lafutidine]	1.619 SD	–
O=C1NC(=O)C(c2ccccc2[N+](=O)[O-])=C1Nc1ccc(O)c(Cl)c1 [SB 415286]	–	2.05 SD
CCCCOc1ccc(CC(=O)NO)cc1 [Bufexamac]	2.326 SD	3.676 SD

Same assay, conditions: 10 μM, 16 hours; hit = 1.5 standard deviation above population average, at least 40% viability

Molecule	classification as hit increasing cilia length in the screen
CCCCOc1ccc(CC(=O)NO)cc1 [Bufexamac]	listed as a hit increasing length; also recorded: listed as hits
